This assay concerns the target c-kit WT (Homo sapiens (Human), UniProt P10721). Description: Proliferation assay (CellTiter-Blue) on BaF3 Kit WT cell line. It counts as cell-based. The conditions noted are these: BaF3 Kit WT cell line (murine Ba/F3 expressing Human Kit WT, with murine SCF), 48 hours. In outline: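 Ba/F3 cells expressing human Kit WT, maintained in RPMI/10% FCS with 250 ng/ml murine SCF, were seeded at 2.10^4 cells/well and exposed to ½ serial dilutions (0–10 μM) for 48 h at 37° C. Viability was measured by CellTiter-Blue fluorescence (544Ex/590Em, 4 h) in triplicate as % of untreated proliferation.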
(Resazurin is reduced to fluorescent resorufin, in cell work by metabolically active cells.)

pIC50: −log10 of the molar value.

As a reminder, the pIC50 is −log10 of the IC50, conventionally taken in molar units. High values mean a low IC50, low ones a high IC50.

Sequence of c-kit WT (P10721 26-976): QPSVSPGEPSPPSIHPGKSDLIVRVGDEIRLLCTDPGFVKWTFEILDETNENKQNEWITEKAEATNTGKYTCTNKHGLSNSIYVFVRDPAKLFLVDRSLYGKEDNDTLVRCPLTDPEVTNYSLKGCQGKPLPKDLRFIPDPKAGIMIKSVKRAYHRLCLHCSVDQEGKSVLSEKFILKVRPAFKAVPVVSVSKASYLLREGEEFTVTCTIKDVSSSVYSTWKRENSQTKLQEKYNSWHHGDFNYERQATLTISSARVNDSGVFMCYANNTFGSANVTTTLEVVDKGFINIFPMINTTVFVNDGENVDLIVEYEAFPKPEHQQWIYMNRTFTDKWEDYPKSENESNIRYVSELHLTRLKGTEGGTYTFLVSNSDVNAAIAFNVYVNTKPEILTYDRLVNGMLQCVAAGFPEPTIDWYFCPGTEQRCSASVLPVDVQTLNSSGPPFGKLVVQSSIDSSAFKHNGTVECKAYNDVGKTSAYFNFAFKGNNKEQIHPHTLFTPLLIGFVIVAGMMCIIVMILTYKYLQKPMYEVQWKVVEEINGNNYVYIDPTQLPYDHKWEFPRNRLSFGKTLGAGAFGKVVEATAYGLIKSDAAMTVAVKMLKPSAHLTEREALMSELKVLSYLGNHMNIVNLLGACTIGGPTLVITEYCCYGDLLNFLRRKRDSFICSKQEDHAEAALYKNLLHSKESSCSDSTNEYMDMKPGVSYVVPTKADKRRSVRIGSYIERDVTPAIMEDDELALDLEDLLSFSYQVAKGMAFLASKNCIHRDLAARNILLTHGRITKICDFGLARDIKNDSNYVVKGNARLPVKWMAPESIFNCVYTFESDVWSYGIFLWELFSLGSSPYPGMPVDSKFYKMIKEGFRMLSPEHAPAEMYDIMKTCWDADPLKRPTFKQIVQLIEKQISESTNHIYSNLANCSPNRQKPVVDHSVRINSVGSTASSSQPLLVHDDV

`Cc1cc2c(cc1Nc1nc(-c3ccncc3)cs1)nc(-c1cccc(C(C)C)c1)n2C` [Compound 151, [2-(3-Isopropyl-phenyl)-1,6-dimethyl-1H-benzoimidazol-5-yl]-(4-pyridin-4-yl-thiazol-2-yl)-amine]: the negative-log IC50 (pIC50) is at least 6.00. For `Cc1cc2c(cc1Nc1nc(-c3ccncc3)cs1)nc(-c1cccc(C(C)(C)C)c1)n2C` [Compound 152, [2-(3-tert-Butyl-phenyl)-1,6-dimethyl-1H-benzoimidazol-5-yl]-(4-pyridin-4-yl-thiazol-2-yl)-amine] the value was at least 6.00; for `Cc1cc2[nH]c(-c3cccc(C(C)(C)C)c3)nc2cc1Nc1nc(-c2ccncc2)cs1` [Compound 153, [2-(3-tert-Butyl-phenyl)-6-methyl-1H-benzoimidazol-5-yl]-(4-pyridin-4-yl-thiazol-2-yl)-amine], at least 6.00. Take `Cc1cc2[nH]c(-c3cccc(C(C)(C)C)c3)nc2cc1Nc1nc(-c2ccc(C#N)cc2)cs1` [Compound 154, 4-{2-[2-(3-tert-Butyl-phenyl)-6-methyl-1H-benzoimidazol-5-ylamino]-thiazol-4-yl}-benzonitrile]: the pIC50 was at least 6.00.

(Values after patent publication US10202370B2, “Benzimidazole derivatives as selective proteine kinase inhibitors” (AB SCIENCE, priority 2013, dated 2019).)
